Values of other authors as cited in patent US20060204445A1, “Cell scaffold matrices with image contrast agents” (priority 2005, published 2006).

Details: in vivo

heparin
normal half-life of heparin: 1 to 2 h
